The text below walks through data of publication PMC7143862, “Prostaglandins Isolated from the Octocoral Plexaura homomalla: In Silico and In Vitro Studies Against Different Enzymes of Cancer” (Marine Drugs, 2020).

Values after ≈ are worked out from the molar mass of the structure shown. A value given as a limit tells only on which side of the number the result lay.

Usually IC50 stands for the midpoint of a concentration-inhibition curve. The term inhibition denotes the change of the read-out against control, counted positive when it falls.

Assay [1] has as its system A549 lung cancer cell line. Kind of assay: MTT cell proliferation assay, A549. The format is cell-based, human. The conditions noted are these: lung cancer cells; for IC50: Homo sapiens, A549, 48 h treatment. The source says: (§1) All materials and reagents for cell culture were purchased from Sigma Aldrich (Saint Louis, MS, USA). For the assay, two human cancer cell lines and two cell lines, one human and one mouse as controls, were used. The human breast cancer cell line (MDA-MB-231 ATCC®) and lung cancer cell line (A549 ATCC®) were maintained in Dulbecco’s modified Eagle medium (DMEM) supplemented with 10% of fetal bovine serum and 1% of penicillin. The primary human dermal fibroblasts from adult skin (HDFa ATCC®) and the cell line from mouse adipose tissue (L929 ATCC®) were maintained in Roswell Park Memorial Institute medium (RPMI) supplemented with 10% of fetal bovine serum and 1% of penicillin, all cells in incubator with 5% CO2 at 37 °C [25].
(§2) Antiproliferative studies were carried out using the modified MTT assay based on a previously published method. In this case, 100 μL of cell suspension from the tumor lines was seeded in 96-well plates with a cellular density of 20,000 cells/well and incubated with 5% CO2 at 37 °C to allow cell adhesion. After 48 h, the supernatant was discarded and the cells were treated with different concentrations (5, 10, 25, 50, and 100 μg/mL) of the natural compounds 1 and 2 and the semisynthetic derivatives 3–5 dissolved in an unsupplemented medium. The plate was incubated for 48 h with 5% CO2 at 37 °C. Subsequently, 100 μL of an MTT solution at 0.5 mg/mL was added to each well and placed back in the incubator for 2 h. The supernatant was removed and 100 μL of DMSO was added to incubate for 15 min. Finally, absorbance (OD) at 595 nm was measured on an iMark ™ Microplate reader (Bio-Rad, Hercules, CA, USA).
(§3) The cytotoxic activity was quantified by calculating the mean inhibitory concentration (IC50), normalizing the absorbance data and converting them into percentages of inhibition. With a nonlinear 4PL regression, the IC50 was found, as developed by Sebaugh, using the PrimsGraph Pad® program (GraphPad Software Inc., San Diego, CA, USA).
For orientation: Formazan colour is commonly taken as a measure of viable cells.

In assay [2] the test system is MDA-MB-231 breast cancer cell line. The assay is described as follows: MTT cell proliferation assay, MDA-MB-231. The format is cell-based. The conditions noted are these: Homo sapiens, 48 h treatment, breast cancer cells.
Text: as §1, §2, §3

Assay [3] deals with HDFa dermal fibroblast cell line. The assay is described as follows: MTT cell proliferation assay, HDFa. The conditions noted are these: 48 h treatment, healthy human dermal fibroblasts. It is filed as cell-based.
Text: as §1, §2, §3

In assay [4] the test system is L929 fibroblast cell line. The assay is described as follows: MTT cell proliferation assay, L929. The note with it: 48 h treatment, healthy mouse fibroblasts. The format is cell-based.
Text: as §1, §2, §3

Assay [5] has as its target T1, p38α-kinase (Homo sapiens, UniProt Q16539).
T1 construct: purchased Promega Corporation
The assay is described as follows: p38α Kinase Enzyme System, ADP-Glo luminescence. The format is biochemical. The text has this:
Possibly due to a higher concentration of compounds that generate interaction with a site of the enzymes different from the active site, which leads to a lower inhibition, as explained by Abdel-Magid, where it is stated that most of the drugs are designed to join the primary active sites of the enzymes, known as orthostatic sites. However, these can also have secondary sites or allosteric, in which, at the time of the inhibitors join them, a secondary effect is generated causing an increase in enzymatic activity. Therefore, it was not possible to obtain an IC50 value and the results were analyzed by the area under the curve (AUC). This performs the integral of the function of the logarithm of the concentration vs. luminescence for each of the compounds, and in this way to be able to compare the activity between them.
(§4) For the assay of the enzymatic activity, the p38α Kinase Enzyme System (Promega Corporation, Madison, WI, USA) and Src Kinase Enzyme System (Promega Corporation, Madison, WI, USA) kits were used. In this case 25 μL of reaction were added to each well (in the final concentrations shown in Table 4), where 10 μL were from substrate solution (0.2 mg/mL substrate, ATP and 1 × buffer kinase (Promega Corporation)), 10 μL of kinase solution (kinase (Promega Corporation), 1 × buffer kinase (Promega Corporation) and nuclease-free water) and 5 μL of the compounds initially prepared at 1 mM in DMSO and performing serial dilutions in Buffer Kinase (Promega Corporation) from 10 μM to 0.625 μM according to protocol for the kits (Promega Corporation, 2018). The plates were left at room temperature for 1 h, then 25 μL of ADP-Glo ™ Reagent (Promega Corporation) were added, these were placed at room temperature again for 40 min. Finally, 50 μL of the kinase detection reagent will be added and left at room temperature for 45 min [28]. The measurement was made by means of luminescence in an integration time of 0.5 to 1 s in the GENios Plus microplate reader (Grödig/Salzburg, Austria).
Background: ADP-Glo turns the ADP formed in a reaction into a luminescent signal.

Assay [6] addresses T2, Src-kinase (Homo sapiens, UniProt P12931).
T2 construct: purchased Promega Corporation
Kind of assay: Src Kinase Enzyme System, ADP-Glo luminescence. The format is biochemical. The note with it: for Src-kinase area under the curve (AUC): log concentration vs. luminescence, 10 to 0.625 μM, smaller area = more inhibition.
Text: On the other hand, there are several enzymes that may be involved in several types of cancer, such as non-receptor tyrosine kinase (c-Src) which belongs to the family of kinases and is expressed in all cell types, but its activity is related to advanced malignancies and an unfavorable prognoses of human cancers, so it is considered a molecular target for studies of potential inhibitors. As with the previous enzyme, similar behavior was obtained, so the area under the curve of each of the compounds was also calculated in order to know which of them generate greater inhibition.
as §4

Assay [7] deals with T3, topoisomerase IIα (Homo sapiens, UniProt P11388).
T3 construct: purchased TopoGen
T3 sequence (P11388 whole entry): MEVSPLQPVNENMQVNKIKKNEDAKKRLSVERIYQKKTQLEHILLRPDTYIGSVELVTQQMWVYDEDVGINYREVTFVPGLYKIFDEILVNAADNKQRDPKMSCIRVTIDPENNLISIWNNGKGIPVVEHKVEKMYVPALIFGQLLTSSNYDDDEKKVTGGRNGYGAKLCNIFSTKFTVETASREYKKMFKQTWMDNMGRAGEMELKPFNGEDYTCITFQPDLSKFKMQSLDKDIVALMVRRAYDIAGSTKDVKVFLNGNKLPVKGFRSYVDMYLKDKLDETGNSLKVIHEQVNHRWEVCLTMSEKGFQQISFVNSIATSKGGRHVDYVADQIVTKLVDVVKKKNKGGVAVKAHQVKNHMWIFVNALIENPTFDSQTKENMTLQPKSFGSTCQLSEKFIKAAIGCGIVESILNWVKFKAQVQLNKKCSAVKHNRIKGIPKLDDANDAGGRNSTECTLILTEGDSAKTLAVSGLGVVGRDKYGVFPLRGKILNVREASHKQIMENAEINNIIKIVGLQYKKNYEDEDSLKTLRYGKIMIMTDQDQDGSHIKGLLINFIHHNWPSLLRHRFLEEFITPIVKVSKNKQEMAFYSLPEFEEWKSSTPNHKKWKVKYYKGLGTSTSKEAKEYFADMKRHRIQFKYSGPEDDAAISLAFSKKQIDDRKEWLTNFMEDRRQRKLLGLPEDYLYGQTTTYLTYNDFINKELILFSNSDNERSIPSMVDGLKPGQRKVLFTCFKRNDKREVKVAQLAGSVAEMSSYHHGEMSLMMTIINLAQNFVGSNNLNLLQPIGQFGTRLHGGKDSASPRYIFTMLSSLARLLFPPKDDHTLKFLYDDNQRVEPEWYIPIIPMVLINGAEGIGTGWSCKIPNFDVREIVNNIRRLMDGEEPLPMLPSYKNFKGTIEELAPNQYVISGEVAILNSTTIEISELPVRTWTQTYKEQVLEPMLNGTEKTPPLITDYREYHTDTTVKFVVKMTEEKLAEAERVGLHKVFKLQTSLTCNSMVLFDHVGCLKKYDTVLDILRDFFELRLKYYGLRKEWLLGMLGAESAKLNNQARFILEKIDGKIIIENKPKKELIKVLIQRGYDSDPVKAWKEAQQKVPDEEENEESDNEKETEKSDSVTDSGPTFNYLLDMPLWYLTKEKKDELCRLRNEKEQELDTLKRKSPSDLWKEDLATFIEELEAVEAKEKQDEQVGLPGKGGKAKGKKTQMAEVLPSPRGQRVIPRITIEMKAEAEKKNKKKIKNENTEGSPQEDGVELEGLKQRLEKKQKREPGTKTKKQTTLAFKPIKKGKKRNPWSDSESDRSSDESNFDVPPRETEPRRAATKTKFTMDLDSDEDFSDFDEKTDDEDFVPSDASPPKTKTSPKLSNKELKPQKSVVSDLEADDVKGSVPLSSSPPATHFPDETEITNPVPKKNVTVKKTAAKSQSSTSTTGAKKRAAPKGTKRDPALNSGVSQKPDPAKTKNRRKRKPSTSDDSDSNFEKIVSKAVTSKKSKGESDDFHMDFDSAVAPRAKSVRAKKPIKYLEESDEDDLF
The assay is described as follows: Topoisomerase IIα drug detection kit, kDNA agarose gel. The conditions noted are these: normalized with 1% DMSO. It is filed as biochemical. Here is the method: The Topoisomerase IIα drug detection kit (TopoGen, Buena Vista, VA, USA) was used. Reactions were made with 4 μL of reaction buffer (50 mM Tris-HCl, 5 mM ATP, 150 mM NaCl, 30 μg/mL bovine serum albumin, 0.5 mM dithiothreitol, 10 mM MgCl2), 1 μL of the enzyme topoisomerase IIα ([…], 2 units), 1 μL of the kDNA substrate (approximately 200 ng) and 1 μL of the compounds with activity at 10 μM, so that the final volume was 20 μL completing with nuclease-free water. These reactions were incubated at 37 °C for 30 min, and the reaction was terminated with 4 μL of stop buffer.

For assay [8], the system named is skin cancer cells. Set-up: method as in PMID 30858059, PMID 28292936. The note with it: cited from earlier work.
Assay [9] has as its system lung cancer cells line (A549). Set-up: method as in PMID 28635645. The note with it: cited from earlier work.

T1 sequence (Q16539 whole entry): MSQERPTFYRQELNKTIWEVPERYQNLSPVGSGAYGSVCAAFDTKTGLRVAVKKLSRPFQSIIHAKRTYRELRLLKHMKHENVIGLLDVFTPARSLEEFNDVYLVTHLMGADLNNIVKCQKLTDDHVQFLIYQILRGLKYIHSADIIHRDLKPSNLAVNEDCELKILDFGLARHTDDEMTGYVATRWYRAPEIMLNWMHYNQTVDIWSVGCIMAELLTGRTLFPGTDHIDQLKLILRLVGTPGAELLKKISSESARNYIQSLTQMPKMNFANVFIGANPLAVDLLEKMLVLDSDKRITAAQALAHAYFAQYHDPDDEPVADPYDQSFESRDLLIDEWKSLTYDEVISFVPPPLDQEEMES
T2 sequence (P12931 whole entry): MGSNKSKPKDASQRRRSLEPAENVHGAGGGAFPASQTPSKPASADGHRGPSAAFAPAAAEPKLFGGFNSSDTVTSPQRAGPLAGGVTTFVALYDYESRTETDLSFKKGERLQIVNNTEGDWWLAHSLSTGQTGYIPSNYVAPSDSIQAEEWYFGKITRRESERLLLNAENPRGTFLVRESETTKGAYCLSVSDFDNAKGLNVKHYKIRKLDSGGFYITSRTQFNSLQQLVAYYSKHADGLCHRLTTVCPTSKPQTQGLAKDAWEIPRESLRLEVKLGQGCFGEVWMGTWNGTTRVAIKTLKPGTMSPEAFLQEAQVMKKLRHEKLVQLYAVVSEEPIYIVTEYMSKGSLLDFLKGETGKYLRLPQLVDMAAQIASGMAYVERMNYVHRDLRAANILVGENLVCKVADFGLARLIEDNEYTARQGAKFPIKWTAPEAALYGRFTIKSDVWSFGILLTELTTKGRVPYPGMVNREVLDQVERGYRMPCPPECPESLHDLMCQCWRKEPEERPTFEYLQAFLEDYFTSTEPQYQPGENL

For `CCCCCC(/C=C/[C@H]1C=CC(=O)[C@@H]1C/C=C\CCCC(=O)OC)OC(C)=O` (stereo partly shown) [Compound 1, (5Z,13E)-15-acetyl-oxy-9-oxo-prosta-5,10,13-trien-1-oic acid methyl ester], in assay [1] (48 h treatment), the “IC50 A549” value is listed as “ineffective”. Also, the half-inhibitory concentration (IC50) in [1] is over 100 µg/mL; in assay [2] it was 27.5 µg/mL (≈ 70.5 µM); in assay [3] it was 28.3 µg/mL (≈ 72.4 µM); in assay [4], 71.7 µg/mL (≈ 184 µM). Moreover, the inhibition at 2.5 µM in [5] was 42%; in assay [6] it was under 40%. Moreover, in [6], the “Src-kinase area under the curve (AUC)” value is reported as “above 1500”. 10 µM produced 45% inhibition in assay [7].
In the case of `CCCCC/C=C/C=C1/C(=O)C=CC1C/C=C\CCCC(=O)NCCO` (stereo not shown) [15-deoxy-Δ^12,14-PGJ2-EA], the IC50 in [8] was 20 µM.
As to sardysterol, the IC50 in [9] is 27.3 µM.
Consider `COc1cccc2c1C(=O)c1c(O)c3c(c(O)c1C2=O)C[C@@](O)(C(=O)CO)C[C@@H]3O[C@H]1C[C@H](N)[C@H](O)[C@H](C)O1` [doxorubicin, reference compound], for which the inhibition at 10 µM in assay [7] worked out at 88%.
For `CCCCCC(/C=C/[C@H]1CC[C@@H](O)[C@@H]1C/C=C\CCCC(=O)OC)OC(C)=O` (stereo partly drawn) [Compound 3, (5Z,9β,13E)-15-acetyloxy-9-hydroxy-prosta-5,13-dien-1-oic acid methyl ester], the IC50 in assay [1], in assay [2], in assay [3] and in [4] was over 100 µg/mL throughout. Also, the results for the inhibition at 2.5 µM in assay [5] and in assay [6] were 37% and under 40%, respectively. In addition, in [7], the inhibition at 10 µM was determined as 43%.
`CCCCCC(O)/C=C/[C@H]1C=CC(=O)[C@@H]1C/C=C\CCCC(=O)O` (stereo partly shown) [Compound 2, (5Z,13E) -15-hydroxy-9-oxoprosta 5,10,13 trien-1-oic acid]: the IC50 is 25.2 µg/mL (≈ 75.3 µM) in [1], 16.5 µg/mL (≈ 49.2 µM) in assay [2], 17.9 µg/mL (≈ 53.4 µM) in [3] and 40.4 µg/mL (≈ 121 µM) in assay [4]. For the same compound, the values for the inhibition at 2.5 µM in [5] and in assay [6] were 49% and 59%, respectively. Moreover, in assay [6], the “Src-kinase area under the curve (AUC)” value was 921. Also, at 10 µM the inhibition in [7] was 64%.
With `CCCCC[C@@H](O)/C=C/[C@H]1CCC(O)[C@@H]1C/C=C\CCCCO` (stereo partly shown) [Compound 5, (5Z,13E)-1,9,15-triol-prosta-5,13-diene], the IC50 in [1], in [2], in assay [3] and in assay [4] was over 100 µg/mL in each case. Besides, the inhibition at 2.5 µM is 39% in [5] and 46% in assay [6]. This compound yielded a p38α-kinase % inhibition in assay [5] (at 2.5 μM) of 36%. Also, 10 µM produced 24% inhibition in [7].
Consider `CCCCC[C@H](O)/C=C/[C@H]1C(=O)C[C@H](O)[C@@H]1C/C=C\CCCC(=O)NCCO` [PGD2-EA], for which the IC50 in assay [8] is 18 µM.
On to `CCCCCC(/C=C/[C@H]1CC[C@H](O)[C@@H]1C/C=C\CCCC(=O)OC)OC(C)=O` (stereo partly drawn) [Compound 4, (5Z,9α,13E)-15-acetyloxy-9-hydroxy-prosta-5,13-dien-1-oic acid methyl ester], for which the IC50 in [1] is over 100 µg/mL; in assay [2], over 100 µg/mL; in assay [3] it was 50.7 µg/mL (≈ 128 µM); in assay [4], 54.3 µg/mL (≈ 138 µM). The inhibition at 2.5 µM in assay [5] is 37%; in assay [6], under 40%. For the same compound, at 10 µM the inhibition in [7] was 26%.
